Results: ChEMBL document CHEMBL1158922, “Antineoplastic agents, 177. Isolation and structure of phyllanthostatin 6” (1990)
≈ marks a conversion by molar mass, not a printed value.

System: P388
Experiment: Cytotoxicity against mouse P388 cells
Format: functional
Details: read-out: ED50 (the source's name)

`CC1CO[C@]2(CC1OC(=O)/C=C/c1ccccc1)OC1CC(C(=O)O[C@@H]3O[C@H](CO)[C@@H](O)[C@H](O)[C@H]3O[C@@H]3O[C@H](C)[C@@H](O)[C@H](O)[C@H]3O)CCC1[C@]21CO1` (stereo partly specified) [PHYLLANTHOSTATIN 6] gave an EC50 of 0.35 µg/mL (≈ 0.475 µM).
